Test results from publication PMC8500670, “A selective WDR5 degrader inhibits acute myeloid leukemia in patient-derived mouse models” (Science translational medicine, 2021).
Read-outs that look alike come from different tables or passages of the source.

Experiments:
Assay in all cases: biochemical
Alpha2A = biological target: T1, Alpha2A (Homo sapiens, UniProt P08913); parameters: GPCR, ion channel and transporter panel, per cent inhibition of binding, mean of four
T1 construct: gene ADRA2A
T1 sequence (P08913 whole entry): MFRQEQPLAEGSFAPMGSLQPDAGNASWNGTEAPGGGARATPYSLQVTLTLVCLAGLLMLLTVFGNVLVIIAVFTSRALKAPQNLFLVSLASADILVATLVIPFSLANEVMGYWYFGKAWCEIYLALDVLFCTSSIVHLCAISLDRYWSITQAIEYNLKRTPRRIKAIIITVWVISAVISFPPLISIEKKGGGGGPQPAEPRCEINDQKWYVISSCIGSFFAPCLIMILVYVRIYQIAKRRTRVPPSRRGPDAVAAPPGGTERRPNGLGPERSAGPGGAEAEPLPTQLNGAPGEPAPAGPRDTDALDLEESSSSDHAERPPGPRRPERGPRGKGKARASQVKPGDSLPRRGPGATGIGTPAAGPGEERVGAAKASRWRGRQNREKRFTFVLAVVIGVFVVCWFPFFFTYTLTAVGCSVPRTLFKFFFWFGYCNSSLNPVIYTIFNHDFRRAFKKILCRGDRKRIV
Method: (§1) We next assessed selectivity of MS67 against 22 protein methyltransferases (table S2) and a broad panel of common drug targets including 45 kinases (table S3) and 44 G protein–coupled receptors (GPCR), ion channels, and transporters (table S4). […] We subsequently determined that MS67 had moderate binding affinity (Ki = 1.0 ± 0.8 μM) to Sigma 2 receptor (fig. S10).

GLP = biological target: T2, GLP (Homo sapiens, UniProt Q9H9B1); parameters: protein methyltransferase selectivity panel, enzyme activity relative to DMSO controls, single concentration in duplicate; conditions: Substrate:=Histone H3 1-21
T2 construct: gene EHMT1
T2 sequence (Q9H9B1 1-1298): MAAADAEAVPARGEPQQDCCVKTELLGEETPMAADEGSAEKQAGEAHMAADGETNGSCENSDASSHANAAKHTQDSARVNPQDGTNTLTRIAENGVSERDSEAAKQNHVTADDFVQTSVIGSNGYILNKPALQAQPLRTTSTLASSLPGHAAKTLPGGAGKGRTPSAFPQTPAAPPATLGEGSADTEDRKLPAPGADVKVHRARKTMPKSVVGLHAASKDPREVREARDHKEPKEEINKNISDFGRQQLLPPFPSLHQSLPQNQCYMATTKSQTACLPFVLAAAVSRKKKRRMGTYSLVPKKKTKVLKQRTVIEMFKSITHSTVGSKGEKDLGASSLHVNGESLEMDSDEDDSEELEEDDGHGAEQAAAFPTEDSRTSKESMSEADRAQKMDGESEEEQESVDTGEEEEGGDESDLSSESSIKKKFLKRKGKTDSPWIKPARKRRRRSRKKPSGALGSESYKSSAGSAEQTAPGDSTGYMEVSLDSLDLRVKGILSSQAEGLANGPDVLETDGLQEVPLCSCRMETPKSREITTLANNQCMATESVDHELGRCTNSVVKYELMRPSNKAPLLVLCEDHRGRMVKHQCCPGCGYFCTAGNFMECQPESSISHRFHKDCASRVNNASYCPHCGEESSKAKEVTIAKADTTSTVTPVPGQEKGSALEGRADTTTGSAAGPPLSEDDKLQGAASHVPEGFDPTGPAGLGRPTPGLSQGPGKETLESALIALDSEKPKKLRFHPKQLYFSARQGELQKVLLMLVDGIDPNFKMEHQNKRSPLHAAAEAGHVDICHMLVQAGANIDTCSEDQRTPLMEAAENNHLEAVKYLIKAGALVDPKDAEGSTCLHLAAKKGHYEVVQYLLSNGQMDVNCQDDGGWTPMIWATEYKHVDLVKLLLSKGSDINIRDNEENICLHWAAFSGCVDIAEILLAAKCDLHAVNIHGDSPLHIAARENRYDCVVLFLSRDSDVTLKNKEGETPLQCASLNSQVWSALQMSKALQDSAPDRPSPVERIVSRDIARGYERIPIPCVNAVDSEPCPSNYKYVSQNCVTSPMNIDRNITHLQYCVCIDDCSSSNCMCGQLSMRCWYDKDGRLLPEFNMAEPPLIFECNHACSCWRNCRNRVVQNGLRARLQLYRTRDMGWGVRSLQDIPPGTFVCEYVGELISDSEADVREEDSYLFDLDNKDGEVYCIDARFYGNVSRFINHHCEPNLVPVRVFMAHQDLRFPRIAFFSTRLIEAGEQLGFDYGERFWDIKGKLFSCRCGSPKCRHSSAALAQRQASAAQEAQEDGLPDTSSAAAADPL
Method: as §1

NSD1 = NSD1 (Homo sapiens, UniProt Q96L73); parameters: protein methyltransferase selectivity panel, enzyme activity relative to DMSO controls, single concentration in duplicate; conditions: Substrate:=Nucleosomes
Sequence of NSD1 (Q96L73 whole entry): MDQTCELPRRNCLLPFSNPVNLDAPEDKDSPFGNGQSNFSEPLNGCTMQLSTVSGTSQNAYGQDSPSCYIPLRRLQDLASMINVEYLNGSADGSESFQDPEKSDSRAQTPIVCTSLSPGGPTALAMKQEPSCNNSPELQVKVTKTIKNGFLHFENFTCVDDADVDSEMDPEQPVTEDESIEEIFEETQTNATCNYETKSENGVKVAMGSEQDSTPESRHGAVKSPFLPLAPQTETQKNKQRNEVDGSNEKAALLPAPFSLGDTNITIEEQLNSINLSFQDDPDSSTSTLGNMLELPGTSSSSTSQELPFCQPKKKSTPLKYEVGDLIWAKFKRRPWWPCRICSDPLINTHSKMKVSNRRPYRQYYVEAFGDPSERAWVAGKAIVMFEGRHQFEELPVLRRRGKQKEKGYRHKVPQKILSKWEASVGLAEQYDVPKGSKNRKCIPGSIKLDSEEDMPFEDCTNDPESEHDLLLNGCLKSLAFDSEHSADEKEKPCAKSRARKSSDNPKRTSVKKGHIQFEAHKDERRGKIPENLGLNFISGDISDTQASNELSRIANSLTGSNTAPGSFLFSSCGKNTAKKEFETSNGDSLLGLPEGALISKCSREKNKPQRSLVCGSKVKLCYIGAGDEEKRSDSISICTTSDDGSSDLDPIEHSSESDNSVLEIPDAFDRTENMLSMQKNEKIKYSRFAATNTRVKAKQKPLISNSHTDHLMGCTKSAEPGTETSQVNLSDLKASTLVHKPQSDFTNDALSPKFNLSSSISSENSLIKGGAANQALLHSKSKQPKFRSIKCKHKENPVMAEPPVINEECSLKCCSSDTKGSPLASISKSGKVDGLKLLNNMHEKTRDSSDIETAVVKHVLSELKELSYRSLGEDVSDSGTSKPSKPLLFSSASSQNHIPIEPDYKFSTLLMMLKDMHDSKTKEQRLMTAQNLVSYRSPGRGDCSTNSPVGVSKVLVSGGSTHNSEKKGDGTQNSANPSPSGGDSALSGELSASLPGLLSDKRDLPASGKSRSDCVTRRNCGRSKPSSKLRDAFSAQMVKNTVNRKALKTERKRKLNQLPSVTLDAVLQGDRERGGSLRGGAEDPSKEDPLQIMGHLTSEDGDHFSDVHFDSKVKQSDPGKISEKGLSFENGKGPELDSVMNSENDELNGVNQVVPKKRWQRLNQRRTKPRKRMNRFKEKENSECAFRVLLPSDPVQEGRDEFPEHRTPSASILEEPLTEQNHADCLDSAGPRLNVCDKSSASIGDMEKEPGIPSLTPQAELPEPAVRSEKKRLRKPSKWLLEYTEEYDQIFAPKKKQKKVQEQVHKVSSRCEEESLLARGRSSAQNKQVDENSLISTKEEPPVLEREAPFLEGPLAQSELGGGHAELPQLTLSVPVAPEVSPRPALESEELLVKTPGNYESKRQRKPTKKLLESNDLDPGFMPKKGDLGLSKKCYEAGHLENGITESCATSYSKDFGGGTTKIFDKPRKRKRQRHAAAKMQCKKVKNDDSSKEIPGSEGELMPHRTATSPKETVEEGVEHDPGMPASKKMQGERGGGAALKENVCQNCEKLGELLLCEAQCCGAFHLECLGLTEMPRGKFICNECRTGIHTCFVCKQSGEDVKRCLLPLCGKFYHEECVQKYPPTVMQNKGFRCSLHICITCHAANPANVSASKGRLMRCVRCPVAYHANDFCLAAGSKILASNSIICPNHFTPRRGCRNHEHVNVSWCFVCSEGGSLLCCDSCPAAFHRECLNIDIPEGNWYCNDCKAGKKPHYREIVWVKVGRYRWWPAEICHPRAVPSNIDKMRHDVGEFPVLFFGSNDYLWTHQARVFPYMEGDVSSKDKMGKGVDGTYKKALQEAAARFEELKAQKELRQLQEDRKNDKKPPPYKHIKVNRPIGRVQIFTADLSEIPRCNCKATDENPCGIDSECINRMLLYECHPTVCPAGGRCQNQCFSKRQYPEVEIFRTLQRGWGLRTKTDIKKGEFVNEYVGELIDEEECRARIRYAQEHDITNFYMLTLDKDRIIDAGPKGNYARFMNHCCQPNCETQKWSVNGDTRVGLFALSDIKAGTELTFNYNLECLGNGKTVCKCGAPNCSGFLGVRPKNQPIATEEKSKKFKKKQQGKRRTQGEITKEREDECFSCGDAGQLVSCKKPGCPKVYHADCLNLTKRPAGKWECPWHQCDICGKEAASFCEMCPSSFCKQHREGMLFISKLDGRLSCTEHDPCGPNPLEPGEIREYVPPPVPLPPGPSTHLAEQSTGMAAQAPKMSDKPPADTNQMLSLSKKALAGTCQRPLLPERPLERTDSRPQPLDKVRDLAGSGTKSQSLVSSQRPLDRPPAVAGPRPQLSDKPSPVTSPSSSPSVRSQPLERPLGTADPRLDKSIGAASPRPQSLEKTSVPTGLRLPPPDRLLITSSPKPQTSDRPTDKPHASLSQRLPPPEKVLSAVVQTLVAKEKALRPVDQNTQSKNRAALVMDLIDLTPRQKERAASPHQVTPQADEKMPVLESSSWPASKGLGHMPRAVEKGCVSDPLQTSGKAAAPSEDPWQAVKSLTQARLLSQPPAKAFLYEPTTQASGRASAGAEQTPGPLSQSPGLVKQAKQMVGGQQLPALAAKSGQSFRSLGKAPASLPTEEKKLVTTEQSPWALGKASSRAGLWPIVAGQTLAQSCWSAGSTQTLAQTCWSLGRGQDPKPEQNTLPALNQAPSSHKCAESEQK
Method: as §1

PRMT1 = PRMT1 (Homo sapiens, UniProt Q99873); parameters: protein methyltransferase selectivity panel, enzyme activity relative to DMSO controls, single concentration in duplicate; conditions: Substrate:=Histone H4
Sequence of PRMT1 (Q99873 whole entry): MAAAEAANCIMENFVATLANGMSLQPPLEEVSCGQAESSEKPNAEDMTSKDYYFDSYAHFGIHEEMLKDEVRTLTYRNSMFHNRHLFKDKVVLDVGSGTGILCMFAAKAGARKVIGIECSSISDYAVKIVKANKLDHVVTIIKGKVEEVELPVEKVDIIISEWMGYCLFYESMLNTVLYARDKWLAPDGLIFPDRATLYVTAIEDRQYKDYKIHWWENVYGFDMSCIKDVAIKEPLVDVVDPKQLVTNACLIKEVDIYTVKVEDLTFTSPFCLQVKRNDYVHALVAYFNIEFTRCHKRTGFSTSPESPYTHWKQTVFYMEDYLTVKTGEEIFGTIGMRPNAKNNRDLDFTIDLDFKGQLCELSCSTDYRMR
Method: as §1

PRMT3 = PRMT3 (Homo sapiens, UniProt O60678); parameters: protein methyltransferase selectivity panel, enzyme activity relative to DMSO controls, single concentration in duplicate; conditions: Substrate:=Histone H4
Sequence of PRMT3 (O60678 whole entry): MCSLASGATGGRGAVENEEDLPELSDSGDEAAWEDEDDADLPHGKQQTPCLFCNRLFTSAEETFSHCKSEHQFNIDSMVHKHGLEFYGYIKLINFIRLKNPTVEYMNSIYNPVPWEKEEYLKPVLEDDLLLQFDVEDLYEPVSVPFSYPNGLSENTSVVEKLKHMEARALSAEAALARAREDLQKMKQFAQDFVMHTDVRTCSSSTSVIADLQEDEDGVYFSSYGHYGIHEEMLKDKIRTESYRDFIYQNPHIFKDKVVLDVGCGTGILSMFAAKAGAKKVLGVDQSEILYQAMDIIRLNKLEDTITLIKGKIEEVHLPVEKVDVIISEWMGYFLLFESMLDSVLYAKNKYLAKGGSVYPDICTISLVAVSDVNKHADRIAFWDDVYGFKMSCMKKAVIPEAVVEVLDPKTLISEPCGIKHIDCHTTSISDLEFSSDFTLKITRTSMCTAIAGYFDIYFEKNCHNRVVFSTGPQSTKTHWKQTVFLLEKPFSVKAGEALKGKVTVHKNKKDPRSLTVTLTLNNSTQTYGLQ
Method: as §1

PRMT8 = PRMT8 (Homo sapiens, UniProt Q9NR22); parameters: protein methyltransferase selectivity panel, enzyme activity relative to DMSO controls, single concentration in duplicate; conditions: Substrate:=Histone H4
Sequence of PRMT8 (Q9NR22 whole entry): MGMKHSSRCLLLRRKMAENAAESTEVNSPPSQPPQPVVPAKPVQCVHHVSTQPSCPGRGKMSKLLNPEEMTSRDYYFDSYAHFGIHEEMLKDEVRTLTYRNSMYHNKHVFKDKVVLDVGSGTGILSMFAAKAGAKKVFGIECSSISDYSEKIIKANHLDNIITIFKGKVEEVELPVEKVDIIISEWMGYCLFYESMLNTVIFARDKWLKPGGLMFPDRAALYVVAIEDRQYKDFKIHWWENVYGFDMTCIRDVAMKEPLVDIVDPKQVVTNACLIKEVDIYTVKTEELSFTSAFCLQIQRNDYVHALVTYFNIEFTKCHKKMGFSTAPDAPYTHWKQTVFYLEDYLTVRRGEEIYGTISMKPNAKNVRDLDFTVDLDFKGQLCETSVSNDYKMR
Method: as §1

SUV39H1 = biological target: T3, SUV39H1 (Homo sapiens, UniProt O43463); parameters: protein methyltransferase selectivity panel, enzyme activity relative to DMSO controls, single concentration in duplicate; conditions: Substrate:=Histone H3
T3 sequence (O43463 1-412): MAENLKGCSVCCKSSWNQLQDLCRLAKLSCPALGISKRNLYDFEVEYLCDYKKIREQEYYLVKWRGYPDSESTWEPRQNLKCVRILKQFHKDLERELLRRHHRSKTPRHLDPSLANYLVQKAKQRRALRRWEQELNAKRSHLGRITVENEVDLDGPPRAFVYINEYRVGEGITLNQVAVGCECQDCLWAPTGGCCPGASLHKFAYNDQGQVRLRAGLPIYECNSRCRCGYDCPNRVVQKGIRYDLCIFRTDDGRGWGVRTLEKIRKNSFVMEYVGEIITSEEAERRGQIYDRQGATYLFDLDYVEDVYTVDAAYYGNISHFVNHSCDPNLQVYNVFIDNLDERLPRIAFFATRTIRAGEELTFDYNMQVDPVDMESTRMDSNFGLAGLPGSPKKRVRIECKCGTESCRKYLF
Method: as §1

SUV39H2 = SUV39H2 (Homo sapiens, UniProt Q9H5I1); parameters: protein methyltransferase selectivity panel, enzyme activity relative to DMSO controls, single concentration in duplicate; conditions: Substrate:=Histone H3; read-out: Enzyme % Activity (relative to DMSO controls) / MS67 / 10 / Data 1:
Method: as §1

SET1b Complex = SET1b Complex (Homo sapiens, UniProt Q9UPS6); parameters: gene SETD1B; complex; protein methyltransferase inhibition panel, single concentration, duplicate
Method: as §1

[1] = read-out: Enzyme % Activity (relative to DMSO controls) / MS67 / 10 / Data 1:
[2] = read-out: Enzyme % Activity (relative to DMSO controls) / MS67 / 10 / Data 2:

Sequence of SUV39H2 (Q9H5I1 whole entry): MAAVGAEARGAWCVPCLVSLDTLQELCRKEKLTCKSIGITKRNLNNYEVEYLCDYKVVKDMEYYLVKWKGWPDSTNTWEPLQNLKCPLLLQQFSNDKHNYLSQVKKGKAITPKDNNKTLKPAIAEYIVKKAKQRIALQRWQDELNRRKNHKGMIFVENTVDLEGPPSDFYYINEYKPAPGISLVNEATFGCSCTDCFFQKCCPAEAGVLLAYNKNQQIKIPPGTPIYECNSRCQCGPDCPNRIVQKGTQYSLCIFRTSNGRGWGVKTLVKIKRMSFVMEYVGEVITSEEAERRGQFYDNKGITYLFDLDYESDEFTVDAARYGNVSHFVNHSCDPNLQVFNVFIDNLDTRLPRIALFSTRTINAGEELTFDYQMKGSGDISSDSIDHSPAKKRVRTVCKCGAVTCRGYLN

`Cc1ncsc1-c1ccc([C@H](C)NC(=O)[C@@H]2C[C@@H](O)CN2C(=O)[C@@H](NC(=O)CNC(=O)c2ccc(F)c(-c3ccc(N4C[C@@H](C)N(C)[C@@H](C)C4)c(NC(=O)c4c[nH]c(=O)cc4C(F)(F)F)c3)c2)C(C)(C)C)cc1` [MS67] was tested, and the inhibition at 1 µM (Alpha2A) was 21.3%, the remaining activity at 10 µM (GLP; [1]) was 93.6% and the remaining activity at 10 µM (GLP; [2]) was 92.2%. For the same compound, the remaining activity at 10 µM (NSD1; [1]) was 111%, the remaining activity at 10 µM (NSD1; [2]) was 107% and the remaining activity at 10 µM (PRMT1; [1]) was 98.9%. The remaining activity at 10 µM (PRMT1; [2]) was 96%, the remaining activity at 10 µM (PRMT3; [1]) was 92% and the remaining activity at 10 µM (PRMT3; [2]) was 102%. For the same compound, the remaining activity at 10 µM (PRMT8; [1]) was 102%, the remaining activity at 10 µM (PRMT8; [2]) was 98.1% and the remaining activity at 10 µM (SUV39H1; [1]) was 96%. It also gave a remaining activity at 10 µM (SUV39H1; [2]) of 105%, a remaining activity at 10 µM (SUV39H2) of 102% and an inhibition at 10 µM (SET1b Complex) of under 10%.
